Read-outs that look alike come from different tables or passages of the source.
What was measured:
[1] = system: S. mutans (ATCC 700610, UA159); assay: MIC and MBC by serial microdilution assays; assay type: cell-based, Streptococcus mutans; conditions: for MBC / MIC: 48 h, triplicate; for antibacterial potency (MIC and MBC) compared with another agent: comparison in words
Experimental: MIC and MBC were measured using S. mutans (ATCC 700610, UA159, American Type Culture, Manassas, Va.). S. mutans is a cariogenic, aerotolerant anaerobic bacterium and the primary causative agent of dental caries (Loesche 1986). MIC and MBC were determined via serial microdilution assays (Imazato S et al. 2006; Huang L et al. 2011). Unpolymerized DMAHM or DMADM monomer was dissolved in brain heart infusion (BHI) broth (BD, Franklin Lakes, N.J.) to give a final concentration of 200 mg/mL. From these starting solutions, serial two fold dilutions were made into 1 mL volumes of BHI broth. 15 μL of stock S. mutans was added to 15 mL of BHI broth with 0.2% sucrose and incubated at 37° C. with 5% CO2. Overnight cultures of S. mutans were adjusted to 2×10^6 CFU/mL with BHI broth, and 50 μL of inocula was added to each well of a 96-well plate containing 50 μL of a series of antibacterial monomer dilution broths. BHI broth with 1×10^6 CFU/mL bacteria suspension without antibacterial agent served as negative control. Chlorhexidine diacetate (CHX) (Sigma, St. Louis, Mo.) served as positive control. The previously-synthesized QADM (Antonucci J M et al. 2012; Cheng L et al. 2012a) served as an antibacterial monomer control. After incubation at 37° C. in 5% CO2 for 48 h, the wells were read for turbidity, referenced by the negative and positive control wells. MIC was determined as the endpoint (the well with the lowest antibacterial agent concentration) where no turbidity could be detected with respect to the controls (Huang L et al. 2011). To determine MBC, an aliquot of 50 μL from each well without turbidity was inoculated on BHI agar plates and incubated at 37° C. in 5% CO2 for 48 h. MBC was determined as the lowest concentration of antibacterial agent that produced no colonies on the plate. The tests were performed in triplicate (Huang L et al. 2011).

[2] = system: Human gingival fibroblasts (HGF); assay: Cytotoxicity of monomers via MTT assay; assay type: cell-based; conditions: for cytotoxicity / cell viability compared with BisGMA: human gingival fibroblasts, FIG. 1
Experimental: Human gingival fibroblasts (HGF, ScienCell) were cultured in a fibroblast medium (FM). […] Then, HGF were seeded in 96-well plates at 5,000 cells per well. […] After 4 h, the unreacted dye was removed and 150 μL, of dimethyl sulfoxide was added. Absorbance was measured via the microplate reader at 492 nm. […] Cells were also live/dead stained (Molecular Probes) and examined with fluorescence microscopy (TE2000-S, Nikon) as shown in FIG. 1B.

[3] = system: dental plaque microcosm biofilms; assay: Live/dead assay of biofilms (CLSM); assay type: cell-based, human saliva inoculum; conditions: 48-h biofilms on composite disks, FIG. 5
Experimental: The dental plaque microcosm biofilm model used human saliva as inoculum. Saliva was collected from a healthy adult donor following a previous study (Cheng L et al. 2012b). The donor had natural dentition without active caries or periopathology, and without the use of antibiotics within the last 3 months. […] Stimulated saliva was collected during parafilm chewing and kept on ice. The saliva was diluted in sterile glycerol to a concentration of 70% saliva and 30% glycerol (Cheng L et al. 2012b), and stored at −80° C. The saliva-glycerol stock was added, with 1:50 final dilution, into the growth medium as inoculum. The growth medium contained mucin (type II, porcine, gastric) at a concentration of 2.5 g/L; bacteriological peptone, 2.0 g/L; tryptone, 2.0 g/L; yeast extract, 1.0 g/L; NaCl, 0.35 g/L, KCl, 0.2 g/L; CaCl2, 0.2 g/L; cysteine hydrochloride, 0.1 g/L; haemin, 0.001 g/L; vitamin K1, 0.0002 g/L, at pH 7 (McBain A J 2009). Composite disks were sterilized in ethylene oxide (Anprolene AN 74i, Andersen, Haw River, N.C.). 1.5 mL of inoculum was added to each well of 24-well plates with a composite disk, and incubated in 5% CO2 at 37° C. for 8 h. […] Live bacteria were stained with Syto 9 to produce a green fluorescence, and bacteria with compromised membranes were stained with propidium iodide to produce a red fluorescence. […]

[4] = unpolymerized monomer in BHI broth

Row | Compound | MBC [1, 4] | MIC [1, 4] | antibacterial potency (MIC and MBC) compared with another agent [1] | fibroblast viability ([2]; at each monomer concentration (0.5-100 μg/mL), 2 d, n=6, FIG. 1) | cytotoxicity / cell viability compared with BisGMA [2] | antibacterial activity by live/dead staining of biofilms [3] | MBC ([1]; Streptococcus mutans, ATCC700610, unpolymerized monomer in BHI broth, read-out: MBC) | MIC ([1]; Streptococcus mutans, ATCC700610, unpolymerized monomer in BHI broth, read-out: MIC)
1 | CC(=O)O.CC(=O)O.NC(=N\CCCCCC/N=C(N)/N=C(\N)Nc1ccc(Cl)cc1)/N=C(\N)Nc1ccc(Cl)cc1 [CHX, Chlorhexidine diacetate, reference compound] | 3.91 µg/mL | 1.95 µg/mL | – | – | – | – | – | –
2 | C=C(C)C(=O)OCC[N+](C)(C)CCCCCCCCCCCC.[Br-] [DMADDM, dimethylamino dodecyl methacrylate] | 12.21 µg/mL | 6.10 µg/mL | more than two orders of magnitude lower than those of MDAHM | highest fibroblast viability | less cytotoxic | responsible for the antibacterial activity | – | –
3 | C=C(C)C(=O)OCC[N+](C)(C)CCCCCCCCCCCCCCCC.[Br-] [DMAHDM, dimethylamino hexadecyl methacrylate] | 0.61 µg/mL | 0.305 µg/mL | an order of magnitude more potent than those for chain length 12 | – | – | – | – | –
4 | C=C(C)C(=O)OCC[N+](C)(C)CCCCCC.[Br-] [DMAHM] | 3130 µg/mL | 1560 µg/mL | more potent than the previously-synthesized QADM | – | – | – | – | –
5 | C=C(C)C(=O)OCCCCCCCCCCCC[n+]1ccccc1.[Br-] [MDPB, reference compound] | – | – | – | – | less cytotoxic | – | – | –
6 | C=C(C)C(=O)OCC[N+](C)(C)CCOC(=O)C(=C)C.[Br-] [QADM, bis(2-methacryloyloxy-ethyl) dimethyl-ammonium bromide, reference compound] | – | – | – | – | – | – | 25000 µg/mL | 12500 µg/mL

Source: US20150299345A1, “ANTIBACTERIAL MONOMERS, ANTIBACTERIAL RESINS AND DENTAL COMPOSITES COMPRISING THE ANTIBACTERIAL RESINS” (UNIVERSITY OF MARYLAND, BALTIMORE, priority 2012, published 2015)
